From patent US20230414762A1, “PROSTATE-SPECIFIC MEMBRANE ANTIGEN (PSMA)-TARGETED PRODRUG FOR SELECTIVE KILLING OF CELLS […]” (The Johns Hopkins University, priority 2020, published 2023)
Where “and” joins values, the source holds several entries; their conditions need not be identical. Identical values can stand only once. Entries after “also recorded” stand apart in the source; their conditions may differ. Starred links: 1 amine or outer side, 2 acyl side, 3 side chain; linkers in the order of their positions; H or OH if unused. Non-standard residues stand in square brackets, D forms with d. Residues, ends and D or L forms follow the SMILES beside them. *: point of attachment. X1 = O=C(O)CC[C@H](NC(=O)N[C@@H](CCCCNC(=O)CCCCCCC(=O)*)C(=O)O)C(=O)O; Dolaproine = CO[C@@H]([C@@H]1CCCN1)[C@@H](C)C(=O)O; Dil = CC[C@H](C)[C@H](NC)[C@@H](CC(=O)O)OC; PABC = O=C(OCc1ccc(N[*:1])cc1)[*:2]; X2 = C[C@@H](N*)[C@@H](O)c1ccccc1; Cit = NC(=O)NCCC[C@H](N)C(=O)O; NMeV = CN[C@H](C(=O)O)C(C)C

Tests used:
[1] = target: T1, recombinant cathepsin B (Homo sapiens, UniProt P07858); assay: Release of MMAE from prodrug by recombinant cathepsin B; type: biochemical; conditions: within 3 h of incubation with recombinant cathepsin B
T1 construct: purchased MilliporeSigma C8571
Protocol: Release of MMAE from prodrugs by a recombinant cathepsin B was analyzed using a modified method from previously published work. Dubowchik et al., 2002. Prodrug stock solutions (8 μL, 10 mM) were added to the 2 mL cathepsin B (MilliporeSigma, Cat #C8571, Burlington, MA, USA) containing buffer (25 mM acetate, 1 mM EDTA, pH 5, pre-warmed at 37° C.) at the final concentration of 30 nM (cathepsin B) and 40 μM (prodrug). Aliquots (200 μL) were periodically removed and enzymatic activity was stopped by the addition of thioprotease inhibitor E-64 (30 nM in the final solution, MilliporeSigma, Cat #E3132). The samples were centrifuged and the supernatants were analyzed by HPLC (Waters 600 E coupled with Varian prostar detector, Milford, MA, USA). Samples were prepared at 0, 10, 20, 30, 60, 90, and 120 min. Experiments were performed in triplicate.

[2] = Serum stability in murine serum (HPLC); type: in vitro ADME, mouse
Protocol: Serum stability of prodrugs was analyzed using a modified method from previously published work. Chu et al., 2012. Prodrug stock solution (8 μL, 10 mM) was incubated with 100% mouse serum (final concentration of the serum was 80% after the mixing with prodrug solution) at 37° C. Aliquots (50 μL) were periodically removed at 2, 4, 8, 24, and 48 h, and diluted with cold ice CH3OH (100 μL) to precipitate proteins. The samples were centrifuged, and the supernatants were analyzed by HPLC. Stability was calculated based on the peak area of the prodrug at each time point. Experiments were performed in triplicate.

[3] = Serum stability in human serum; type: in vitro ADME
Protocol: Prior to in vivo potency, the stability of SBPD-1 and SBPD-2 in murine serum was evaluated. While 90% of SBPD-2 remained intact for 48 h in murine serum (FIG. 3a), SBPD-1 was metabolized more quickly in murine serum (FIG. 3a). […] SBPD-1, however, was stable in human serum (FIG. 3a). It has been reported that the valine-citrulline linker is stable in human and monkey serum, but that it can be hydrolyzed in mouse plasma via extracellular carboxylesterase 1c. Dorywalska et al., 2016; Anami et al., 2018. Based on those stability results, small, fractionated doses were applied for the murine efficacy study to avoid systemic toxicity that could affect the overall survival of the test animals.

[4] = tested on: PSMA+PC3 PIP tumors; assay: Subcutaneous xenograft efficacy, PSMA+ PC3 PIP tumors; type: in vivo, NSG mice; conditions: for median survival time: 4-fold tumor volume scored as death
[5] = tested on: PSMA− PC3 flu tumors; assay: Subcutaneous xenograft efficacy, PSMA- PC3 flu tumors; type: in vivo, NSG mice
[6] = In vivo toxicity in healthy mice (weight, survival, histopathology); design: species or system C57BL/6 mice
Protocol: (§1) The potential toxicity of SBPD-1 was evaluated in immunocompetent animals. MMAE (80 μg/kg), SBPD-1 (160 μg/kg), and 5% DMSO were administered to healthy C57BL/6 mice (n=5). Animals were monitored for 80 days after initiation of administration. […] Lung, liver, kidneys, salivary and lacrimal glands were removed from all tested animals at Day 80 after initiation of SBPD-1 treatment. […] Peripheral blood also was obtained from mice injected with vehicle, SBPD-1, and healthy untreated animals, and prepared serum for chemistry studies (n=5).
(§2) Male C57BL/6 mice were purchased from Jackson Laboratory. Ten-week-old mice were injected with the indicated doses of MMAE (formulated in 5% DMSO), SBPD-1 (formulated in saline) or 5% DMSO intraperitoneally (daily for 30 days, n=5). Animals were monitored daily for weight changes and other abnormalities for 80 days. Animals were euthanized in a CO2 chamber at day 80, and blood, lung, liver, kidney, salivary gland, and lacrimal gland were collected for complete blood counts, blood chemistry, and histopathological analyses. Complete blood counts including white blood cells (WBC), red blood cells (RBC), hemoglobin (HGB), hematocrit (HCT), mean corpuscular volume (MCV), mean corpuscular hemoglobin (MCH), mean corpuscular hemoglobin concentration (MCHC), and platelet (PLT) were measured using scil Vet ABC™ Hematology Analyzer (scil animal care company, Gurnee, IL). Blood chemistry parameters including blood urea nitrogen (BUN), glucose (GLU), Alkaline Phosphatase (ALP), total protein (T-Pro), Alanine aminotransferase (ALT) and Creatinine (Cre) were measured with Spotchem EZ chemistry analyzer (Arkray USA, Edina, MN). Hematoxylin and eosin slides were generated for five organs and examined by certified veterinary pathologist.

[7] = Blood chemistry in healthy mice; type: in vivo; conditions: C57BL/6 mice
Protocol: as §1, §2

[8] = Complete blood count in healthy mice; type: in vivo; conditions: C57BL/6 mice, 0.16 mg/kg
Protocol: as §2

[9] = tested on: PSMA+PC3/ML/PSMA cells; assay: Experimental metastatic model of PSMA-expressing PC
Protocol: A PSMA-expressing experimental metastatic model of human PC was used to evaluate efficacy of SBPD-1 on established metastatic tumors. […] PSMA+PC3/ML/PSMA cells were administered to NSG mice intravenously (IV) and tumors were allowed to establish for four weeks. PC3/ML/PSMA cells express firefly luciferase as an imaging reporter to allow tumor development to be monitored via weekly bioluminescence imaging (BLI).
For the metastatic model, NSG mice were injected with 0.75 million PC3/ML/PSMA cells via the tail vein. […] BLI was performed weekly using the IVIS Spectrum in vivo imaging system (Perkin Elmer, Waltham, MA).

[10] = Urinalyses from subcutaneous xenograft model (urine reagent strips); conditions: for urine protein / urine specific gravity: individual mice

CC[C@H](C)[C@@H]([C@@H](CC(=O)N1CCC[C@H]1[C@H](OC)[C@@H](C)C(=O)N[C@H](C)[C@@H](O)c1ccccc1)OC)N(C)C(=O)[C@@H](NC(=O)[C@H](C(C)C)N(C)C(=O)OCc1ccc(NC(=O)[C@H](CCCNC(N)=O)NC(=O)[C@@H](NC(=O)CCCCCCC(=O)NCCCC[C@H](NC(=O)N[C@@H](CCC(=O)O)C(=O)O)C(=O)O)C(C)C)cc1)C(C)C [SBPD-1, (6S,9S,24S,28S)-1-Amino-6-((4-((5S,8S,11S,12R)-11-((S)-sec-butyl)-12-(2-((S)-2-((1R,2R)-3-(((1S,2R)-1-hydroxy-1-phenylpropan-2-yl)amino)-1-methoxy-2-methyl-3-oxopropyl)pyrrolidin-1-yl)-2-oxoethyl)-5,8-diisopropyl-4,10-dimethyl-3,6,9-trioxo-2,13-dioxa-4,7,10-triazatetradecyl)phenyl)carbamoyl)-9-isopropyl-1,8,11,18,26-pentaoxo-2,7,10,19,25,27-hexaazatriacontane-24,28,30-tricarboxylic acid] (X1-V[Cit][PABC][NMeV]V[Dil][Dolaproine]-X2)
MMAE released [1]: 80% | intact in serum ([2]; 8 h of incubation): more than 80% | fraction representing parent compound ([2]; 24 h): less than half | degradation of prodrug ([2]; by 48 h of incubation): the majority of the prodrug was fully degraded | stability in human serum [3]: stable | median survival time ([4]; 20 μg/kg daily IP for 30 days): 17 days | time until previously undetectable tumors could be re-measured ([4]; 40 μg/kg): Approximately one week | median survival time ([4]; 40 μg/kg daily IP for 30 days): 54 days | time until re-appearance of tumors ([4]; 80 μg/kg): Two weeks | median survival time ([4]; 80 μg/kg daily IP for 30 days): 69 days | tumors at completion of treatment ([4]; doses of 40 and 80 μg/kg): undetectable | median survival time ([5]; 20 μg/kg daily IP for 30 days): 15 days | median survival time ([5]; 40 μg/kg daily IP for 30 days): 15 days | median survival time ([5]; 80 μg/kg daily IP for 30 days): 20 days | histopathological examination of lung, liver, kidneys, salivary and lacrimal glands ([6]; Day 80 after initiation of treatment, 160 μg/kg): no tissue damage | signs of toxicity / weight ([6]; healthy C57BL/6 mice, 160 μg/kg IP daily for 30 days, monitored 80 days): did not show any signs of toxicity; also recorded: did not induce toxicity | BUN, creatinine, glucose, ALP, T-Pro, ALT compared with untreated mice ([7]; 160 μg/kg): did not show differences | ALP ([7]; 0.16 mg/kg, individual mice): 94 IU/L (2×) and 108 IU/L and 96 IU/L and 85 IU/L | ALT ([7]; 0.16 mg/kg, individual mice): 21 IU/L and 31 IU/L and 22 IU/L and 14 IU/L and 28 IU/L | BUN ([7]; 0.16 mg/kg, individual mice): 28 mg/dl (2×) and 37 mg/dl (2×) and 27 mg/dl | Cre ([7]; 0.16 mg/kg, individual mice): 1 mg/dl and 1.2 mg/dl and 1.1 mg/dl (2×) and 0.8 mg/dl | GLU ([7]; 0.16 mg/kg, individual mice): 188 mg/dL and 248 mg/dL and 285 mg/dL and 219 mg/dL and 189 mg/dL | T-Pro ([7]; 0.16 mg/kg, individual mice): 6.1 g/dl and 6.2 g/dl and 5.9 g/dl (2×) and 6 g/dl | complete blood counts, abnormalities [8]: no abnormalities except for lower white blood cell count | HCT ([8]; individual mice): 36% and 36.6% and 32.2% and 35.6% and 35.8% | HGB ([8]; individual mice): 13.4 g/dl (2×) and 13.8 g/dl and 12.4 g/dl and 14 g/dl | MCH ([8]; individual mice): 33.8 pg (3×) and 35 pg and 34.8 pg | MCHC ([8]; individual mice): 75.8 g/dl (3×) and 76.4 g/dl and 78.2 g/dl | MCV ([8]; individual mice): 90 μm^3 (4×) and 92 μm^3 | PLT ([8]; individual mice): 1280 10^3/mm^3 (2×) and 1068 10^3/mm^3 and 1132 10^3/mm^3 and 1262 10^3/mm^3 | RBC ([8]; individual mice): 8.08 10^6/mm^3 and 8.16 10^6/mm^3 and 7.02 10^6/mm^3 and 7.98 10^6/mm^3 and 8.02 10^6/mm^3 | WBC ([8]; individual mice): 1.6 10^3/mm^3 (2×) and 1.8 10^3/mm^3 and 1.4 10^3/mm^3 and 2 10^3/mm^3 | median survival ([9]; 40 μg/kg daily IP for 30 days): 47 days | median survival ([9]; 80 μg/kg daily IP for 30 days): 56 days | median survival ([9]; 160 μg/kg daily IP for 30 days): 58 days | urine protein ([10]; Day 9, PC3/PIP, 0.02 mg/kg): 30 | urine specific gravity ([10]; Day 9, PC3/PIP, 0.02 mg/kg): 1.025 (3×) and 1.02 (2×) | urine protein ([10]; Day 9, PC3/PIP, 0.04 mg/kg): 30 (3×) and trace (2×) | urine specific gravity ([10]; Day 9, PC3/PIP, 0.04 mg/kg): 1.025 | urine protein ([10]; Day 9, PC3/PIP, 0.08 mg/kg): trace and 30 (4×) | urine specific gravity ([10]; Day 9, PC3/PIP, 0.08 mg/kg): 1.025 | urine protein ([10]; Day 9, PC3/flu, 0.02 mg/kg): 30 | urine specific gravity ([10]; Day 9, PC3/flu, 0.02 mg/kg): 1.025 (4×) and 1.02 | urine protein ([10]; Day 9, PC3/flu, 0.04 mg/kg): 30 | urine specific gravity ([10]; Day 9, PC3/flu, 0.04 mg/kg): 1.025 | urine protein ([10]; Day 9, PC3/flu, 0.08 mg/kg): 300 (2×) and 30 (2×) and 100 | urine specific gravity ([10]; Day 9, PC3/flu, 0.08 mg/kg): 1.025 | urine protein ([10]; Day 20, PC3/PIP, 0.02 mg/kg): 30 | urine specific gravity ([10]; Day 20, PC3/PIP, 0.02 mg/kg): 1.025 | urine protein ([10]; Day 20, PC3/PIP, 0.04 mg/kg): 30 | urine specific gravity ([10]; Day 20, PC3/PIP, 0.04 mg/kg): 1.025 | urine protein ([10]; Day 20, PC3/PIP, 0.08 mg/kg): 30 (3×) and 100 (2×) | urine specific gravity ([10]; Day 20, PC3/PIP, 0.08 mg/kg): 1.025 | urine protein ([10]; Day 20, PC3/flu, 0.02 mg/kg): 30 | urine specific gravity ([10]; Day 20, PC3/flu, 0.02 mg/kg): 1.025 (3×) and 1.01 and 1.03 | urine protein ([10]; Day 20, PC3/flu, 0.04 mg/kg): 30 | urine specific gravity ([10]; Day 20, PC3/flu, 0.04 mg/kg): 1.025 (2×) and 1.03 (2×) | urine protein ([10]; Day 20, PC3/flu, 0.08 mg/kg): 300 (2×) and 30 (3×) | urine specific gravity ([10]; Day 20, PC3/flu, 0.08 mg/kg): 1.025 | urine protein level and specific gravity (acute renal toxicity) ([10]; all test animals, Days 9 and 20, any dose tested): normal
